# Measured values from US20220160712A1, “METHODS OF TREATING RHEUMATOID ARTHRITIS AND FOR PREDICTING THE RESPONSE TO METHOTREXATE” (CHAN ZUCKERBERG BIOHUB, INC., priority 2020, published 2022).
# “And” between values parts separate entries of the source, which are not always exact repeats. Equal values may be shown once.
# Experiments:
# C. asparagiforme = assay: RNA-seq after MTX treatment, with time course; format: cell-based, Clostridium asparagiforme; details: MTX 100 μg/ml
# Method: Genomes were obtained from NCBI's GenBank Assembly database. Culture media was composed of BHI+and allowed to equilibrate in an anaerobic environment prior to use. Briefly, bacteria were cultured in BHI+at 37° C. in an anaerobic chamber. Cultures for each isolate were grown to mid-exponential (achieving an OD600˜0.5), aliquoted into triplicates, treated for 30 minutes with either DMSO or MTX 100 μg/ml, and then removed from the anaerobic chamber. The mid-exponential time point was selected to facilitate comparisons across isolates, as has been done by others (O'Rourke, A., et al. (2020), Antimicrob Agents Chemother 64), since lag and stationary phases would present challenges in term of biomass (lag phase with low biomass) and differing physiology (i.e., sporulation among some isolates and not others). For C. asparagiforme, cultures were incubated for 4 and 20 hours as well and profiled. Cultures were centrifuged at 2000 rpm for 10 minutes at 4° C. to facilitate removal of supernatant, and the remaining bacterial pellet was flash-frozen in liquid nitrogen.
# Each bacterial pellet was incubated with 1 ml of Tri reagent (Sigma Aldrich, catalog #: T9424) at room temperature for 10 minutes. The cell suspension was transferred into Lysing Matrix E tubes (MP Biomedicals, 116914050), and homogenized in a bead-beater (Mini-Beadbeater-24, BioSpec) for 5 minutes at room temperature. The sample was incubated with 200 μL of chloroform at room temperature for 10 minutes, followed by centrifugation at 16,000×g for 15 minutes at 4° C. Next, 500 μL of the upper aqueous phase was transferred into a new tube and 500 μL of 100% ethanol was added. To isolate RNA, PureLink RNA Mini Kit (Life Technologies, catalog #: 12183025) was used. This mixture was transferred onto a PureLink spin column and spun at >12,000×g for 30 seconds. The column was washed with 350 μl of wash buffer I as described in the PureLink manual. The column was incubated with 80 μl of PureLink DNase (Life Technologies, catalog #: 12185010) at room temperature for 15 minutes, and washed with 350 μl of wash buffer I. The column was washed with wash buffer II twice as described in the PureLink manual. Total RNA was recovered in 50 μl of RNAase-free water. A second round of off-column DNAse treatment was undertaken. The RNA was incubated with 6 μl of TURBO DNAse (Ambion, ThermoFisher, catalog #: AM2238) at 37° C. for 30 minutes. To stop the reaction, 56 μl of lysis buffer from the PureLink kit and 56 μl of 100% ethanol was added to the sample and vortexed. This suspension was transferred onto a PureLink column and washed once with 350 μl of wash buffer I and twice with 500 μl of wash buffer II. The RNA was recovered in 30 μl of RNAse-free water.
# (§1) Total RNA was subjected to rRNA depletion using Ribo-Zero Bacterial rRNA Depletion (Illumina, catalog #: MRZB12424), following the manufacturer's protocol. […] For each sample, fastq files are available in NCBI's Sequence Read Archive (SRA), accession number PRJNA656577.
# (§2) Reads were trimmed using Trimmomatic (v0.32) (Bolger, A. M., et al., (2014), Bioinformatics 30, 2114-2120), and ribosomal reads were removed using SortMeRNA (v2.1) (Kopylova, E., et al., (2012), Bioinformatics 28, 3211-3217). Reads were mapped to reference genomes using Bowtie2 (Langmead, B., and Salzberg, S. L. (2012), Nat Methods 9, 357-359) using the following options: -q, —met file, —end-to-end, —sensitive. […]
# Clostridium sporogenes = assay: RNA-seq after MTX treatment; format: cell-based; details: MTX 100 μg/ml, 30 minutes; padj<0.2, DESeq
# Method: (§3) Genomes were obtained from NCBI's GenBank Assembly database. Culture media was composed of BHI+and allowed to equilibrate in an anaerobic environment prior to use. Briefly, bacteria were cultured in BHI+at 37° C. in an anaerobic chamber. Cultures for each isolate were grown to mid-exponential (achieving an OD600˜0.5), aliquoted into triplicates, treated for 30 minutes with either DMSO or MTX 100 μg/ml, and then removed from the anaerobic chamber. […]
# as §1, §2
# B. theta = assay: RNA-seq after MTX treatment; format: cell-based, Bacteroides thetaiotaomicron; details: MTX 100 μg/ml
# Method: as §3, §1, §2
# C. symbiosum = assay: RNA-seq after MTX treatment; format: cell-based, Clostridium symbiosum; details: MTX 100 μg/ml, 30 minutes; padj<0.2, DESeq
# Method: as §3, §1, §2
# [1] = Predicted concentration of MTX in the gastrointestinal (GI) tract; set-up: species or system human; details: for predicted concentration of MTX in the proximal GI tract: RA oral dose 25 mg divided by 250 ml
# Method: The predicted concentration of MTX in the proximal GI tract was estimated by taking the oral dose used for rheumatoid arthritis (25 mg) and dividing it by 250 ml Dahlgren, D., and Lennernas, H. (2019), Pharmaceutics 11, 411; Dressman, J. B., et al., (1985), J Pharm Sci 74, 588-589; Shekhawat, P.B., and Pokharkar, V. B. (2017), Acta Pharm Sin B 7, 260-280), giving a concentration of 100 μg/ml or 220 μM. Further refinement of this estimate was done based on variations in the absorption of oral MTX in the proximal intestine (Grim, J., et al., (2003), Clin Pharmacokinet 42, 139-151), where it is estimated that 10-70% of the dose is not absorbed and instead delivered to the distal GI tract in RA patients. Thus, the estimated range of MTX in the GI tract was calculated to be 10-70 μg/ml with 100 μg/ml being the highest predicted concentration (prior to absorption by the host). When considering the doses used for cancer therapy (50 mg/day of oral MTX), the predicted range is 20-140 μg/ml with 200 μg/ml being the highest dose. MTX can also be given intravenously (IV) or intrathecally for the treatment of cancer (Treon, S. P., and Chabner, B. A. (1996), Clin Chem 42, 1322-1329), and is typically given at much higher doses, including as high as 800-1000 mg IV over 24 hours for the treatment of cancers such as lymphoma or acute lymphoblastic leukemia. Assuming that 30% of this is enterohepatically circulated et al., (1982), Cancer Res 42, 1279-1282), then between 240 and 300 mg would enter the GI tract, and the predicted concentration in the GI tract would be between 960-1200 μg/ml.
# [2] = MTX 1 mg/kg or 50 mg/kg daily, short treatment durations (2-4 days)
# Excerpt: C57BL/6J mice (females, ages 6-16 weeks) were obtained from the UCSF Gnotobiotics core facility (gnotobiotics.ucsf.edu) and housed in gnotobiotic isolators for the duration of each experiment (Class Biologically Clean). […] Housing: Mice were co-housed in some experiments, distributed across multiple cages per treatment group, or individually housed. Individually housed mice were housed in Single Mouse Duplexed Cages (Thoren, Cat #15). Colonization: Mice were colonized with stool from human donors, either a healthy male donor or a treatment-naive (re-MTX) female and male donors with rheumatoid arthritis [as defined by American College of Rheumatology classification criteria, either (Arnett, F. C., et al. (1988), Arthritis Rheum 31, 315-324) or (Aletaha, D., et al. (2010), Arthritis Rheum 62, 2569-2581)]; samples obtained 1 month after starting MTX were used for “post-MTX” transplants. For colonization with a human microbiome, stool was diluted 1:10 g/mL in reduced PBS or saline and homogenized in an anaerobic chamber using pre-equilibrated reagents and supplies. Insoluble material was separated from supernatant by centrifugation at 50 g for 1 minute. Aliquots of supernatant (100-200 μl per mouse) were gavaged into mice. […] Mice were monitored and weighed daily during treatment. […]
# [3] = cancer therapy, 50 mg/day oral MTX
structure (smiles),measurement,setting,value
"CN(Cc1cnc2nc(N)nc(N)c2n1)c1ccc(C(=O)N[C@@H](CCC(=O)O)C(=O)O)cc1 [MTX, methotrexate]",number of pathways enriched,C. asparagiforme,23 pathways
same,number of differentially expressed genes,"C. asparagiforme; 30 minutes, padj<0.2, DESeq",468 genes
same,number of transcripts differentially expressed at all three timepoints,"C. asparagiforme; 30 minutes, 4 and 20 hours, padj<0.2, DESeq",41
same,DHFR or AICAR transformylase expression,C. asparagiforme; time course,no significant differences
same,adenylosuccinate synthase (ADSS) expression,C. asparagiforme; time course,significantly upregulated
same,number of differentially expressed genes,Clostridium sporogenes,21 genes
same,genes in the transcriptome affected,"B. theta; 30 minutes, padj<0.2, DESeq",83%
same,number of pathways enriched among differentially expressed transcripts,B. theta; transcripts with padj<0.2,57 pathways
same,number of differentially expressed genes,C. symbiosum,55 genes
same,predicted concentration in the GI tract,"[1]; 800-1000 mg IV over 24 hours, assuming 30% enterohepatically circulated",960 to 1200 µg/mL
same,estimated concentration of MTX in the proximal gastrointestinal (GI) tract,[1]; Example 2,22-220 μM and 10-100 μg/ml
same,estimated range of MTX in the GI tract,"[1]; RA dose, 10-70% of the dose not absorbed",10 to 70 µg/mL
same,predicted concentration of MTX in the proximal GI tract,[1],220 µM
same,predicted concentration of MTX in the proximal GI tract,"[1]; highest, prior to absorption",100 µg/mL
same,highest predicted concentration of MTX in the GI tract,[1]; [3],200 µg/mL
same,predicted range of MTX in the GI tract,[1]; [3],20 to 140 µg/mL
same,weight loss,[2],minimal weight loss
